Results: ChEMBL document CHEMBL4680313 (Bioorg Med Chem, 2021)
Several values for one entry are separate records, joined by “and”; a condition that tells them apart may be missing. Equal entries are not always repeated.

How the values were obtained:
D(4) dopamine receptor = target: T1, D(4) dopamine receptor (Homo sapiens, UniProt P21917)
T1 sequence (P21917 whole entry): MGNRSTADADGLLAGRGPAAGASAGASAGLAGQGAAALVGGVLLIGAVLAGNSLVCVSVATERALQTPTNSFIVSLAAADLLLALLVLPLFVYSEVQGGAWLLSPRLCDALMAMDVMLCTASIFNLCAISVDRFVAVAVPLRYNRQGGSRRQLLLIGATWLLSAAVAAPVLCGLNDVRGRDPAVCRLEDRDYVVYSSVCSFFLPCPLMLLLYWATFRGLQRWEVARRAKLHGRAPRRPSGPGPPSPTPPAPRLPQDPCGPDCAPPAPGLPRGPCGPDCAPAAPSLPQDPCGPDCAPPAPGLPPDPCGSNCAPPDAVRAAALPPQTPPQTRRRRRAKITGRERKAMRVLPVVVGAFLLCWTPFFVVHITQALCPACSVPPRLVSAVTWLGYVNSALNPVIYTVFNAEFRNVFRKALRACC

[1] = target: T2, 5-hydroxytryptamine receptor 7 (Homo sapiens, UniProt P34969)
T2 sequence (P34969 whole entry): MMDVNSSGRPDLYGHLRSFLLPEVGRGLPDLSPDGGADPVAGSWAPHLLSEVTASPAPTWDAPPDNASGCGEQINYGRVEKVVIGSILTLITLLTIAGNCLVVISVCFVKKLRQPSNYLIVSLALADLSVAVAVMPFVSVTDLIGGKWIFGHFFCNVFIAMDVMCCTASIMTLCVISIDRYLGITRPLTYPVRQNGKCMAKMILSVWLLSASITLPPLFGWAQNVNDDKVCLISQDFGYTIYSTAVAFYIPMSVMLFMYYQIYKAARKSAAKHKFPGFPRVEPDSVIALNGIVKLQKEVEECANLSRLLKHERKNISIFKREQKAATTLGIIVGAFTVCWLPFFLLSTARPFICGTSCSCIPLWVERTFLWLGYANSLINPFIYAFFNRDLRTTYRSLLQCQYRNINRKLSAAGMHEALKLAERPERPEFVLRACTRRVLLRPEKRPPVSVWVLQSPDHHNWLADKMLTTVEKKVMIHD

[2] = target: T3, 5-hydroxytryptamine receptor 2A (Homo sapiens, UniProt P28223)
T3 sequence (P28223 whole entry): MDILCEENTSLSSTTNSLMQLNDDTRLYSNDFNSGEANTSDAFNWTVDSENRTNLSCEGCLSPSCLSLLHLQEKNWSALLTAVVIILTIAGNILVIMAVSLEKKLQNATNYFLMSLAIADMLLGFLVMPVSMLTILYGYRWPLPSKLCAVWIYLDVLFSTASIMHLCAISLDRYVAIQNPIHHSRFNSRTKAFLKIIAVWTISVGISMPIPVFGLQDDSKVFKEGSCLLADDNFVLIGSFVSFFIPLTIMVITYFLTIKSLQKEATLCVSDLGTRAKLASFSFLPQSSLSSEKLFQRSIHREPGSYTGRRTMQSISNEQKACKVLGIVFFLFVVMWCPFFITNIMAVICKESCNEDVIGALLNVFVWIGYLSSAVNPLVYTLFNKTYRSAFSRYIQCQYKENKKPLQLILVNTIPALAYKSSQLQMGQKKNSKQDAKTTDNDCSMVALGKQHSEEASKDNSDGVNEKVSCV

D(3) dopamine receptor [3] = target: T4, D(3) dopamine receptor (Homo sapiens, UniProt P35462)
T4 sequence (P35462 whole entry): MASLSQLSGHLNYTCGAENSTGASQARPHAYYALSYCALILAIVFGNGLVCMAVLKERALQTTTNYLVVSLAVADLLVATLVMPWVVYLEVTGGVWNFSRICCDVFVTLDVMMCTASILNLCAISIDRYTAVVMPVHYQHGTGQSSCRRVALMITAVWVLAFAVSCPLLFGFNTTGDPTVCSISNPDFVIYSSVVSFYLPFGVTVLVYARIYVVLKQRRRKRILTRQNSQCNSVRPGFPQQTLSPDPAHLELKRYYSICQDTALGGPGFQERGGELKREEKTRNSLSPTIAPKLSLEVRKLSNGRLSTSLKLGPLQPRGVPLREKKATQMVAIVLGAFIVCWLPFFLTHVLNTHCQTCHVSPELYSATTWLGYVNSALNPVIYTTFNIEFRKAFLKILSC

[4] = target: T5, 5-hydroxytryptamine receptor 1A (Homo sapiens, UniProt P08908)
T5 sequence (P08908 whole entry): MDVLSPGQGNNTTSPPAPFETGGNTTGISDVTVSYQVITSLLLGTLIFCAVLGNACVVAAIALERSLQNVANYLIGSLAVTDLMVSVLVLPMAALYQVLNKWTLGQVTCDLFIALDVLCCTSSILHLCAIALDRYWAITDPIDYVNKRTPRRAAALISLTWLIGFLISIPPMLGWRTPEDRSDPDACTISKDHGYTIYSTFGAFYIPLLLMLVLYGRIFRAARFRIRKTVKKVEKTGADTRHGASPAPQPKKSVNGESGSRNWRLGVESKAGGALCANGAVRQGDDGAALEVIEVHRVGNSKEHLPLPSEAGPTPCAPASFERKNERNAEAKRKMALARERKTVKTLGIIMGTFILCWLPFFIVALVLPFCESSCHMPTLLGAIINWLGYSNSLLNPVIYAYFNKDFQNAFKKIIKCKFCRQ

D(2) dopamine receptor [5] = target: T6, D(2) dopamine receptor (Homo sapiens, UniProt P14416)
T6 sequence (P14416 whole entry): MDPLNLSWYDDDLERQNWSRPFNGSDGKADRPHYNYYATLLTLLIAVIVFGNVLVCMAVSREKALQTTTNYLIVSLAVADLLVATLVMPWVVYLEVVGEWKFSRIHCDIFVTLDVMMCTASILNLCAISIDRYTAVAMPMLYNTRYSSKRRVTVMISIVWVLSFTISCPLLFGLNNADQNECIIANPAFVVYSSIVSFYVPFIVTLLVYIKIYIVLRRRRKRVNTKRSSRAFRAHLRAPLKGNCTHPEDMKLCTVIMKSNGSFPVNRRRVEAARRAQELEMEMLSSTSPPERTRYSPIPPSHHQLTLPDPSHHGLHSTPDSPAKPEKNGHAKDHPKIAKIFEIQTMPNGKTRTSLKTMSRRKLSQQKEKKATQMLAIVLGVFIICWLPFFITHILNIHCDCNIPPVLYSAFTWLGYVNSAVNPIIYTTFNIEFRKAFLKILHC

[6] = target: T7, 5-hydroxytryptamine receptor 2C (Homo sapiens, UniProt P28335)
T7 sequence (P28335 whole entry): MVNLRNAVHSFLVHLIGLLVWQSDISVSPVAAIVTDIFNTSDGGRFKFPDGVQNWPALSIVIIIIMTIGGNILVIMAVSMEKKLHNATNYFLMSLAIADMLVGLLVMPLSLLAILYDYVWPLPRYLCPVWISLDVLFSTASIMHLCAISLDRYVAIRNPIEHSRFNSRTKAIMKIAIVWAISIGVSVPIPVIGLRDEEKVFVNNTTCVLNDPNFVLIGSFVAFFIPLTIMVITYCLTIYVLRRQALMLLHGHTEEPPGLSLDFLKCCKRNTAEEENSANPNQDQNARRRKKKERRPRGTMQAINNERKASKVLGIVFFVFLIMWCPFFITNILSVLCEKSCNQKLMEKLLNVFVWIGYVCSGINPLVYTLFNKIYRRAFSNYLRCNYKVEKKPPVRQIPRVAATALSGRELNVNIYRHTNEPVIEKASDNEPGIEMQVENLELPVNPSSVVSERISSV

[7] = target: Sodium-dependent serotonin transporter (Homo sapiens, UniProt P31645)
Chain of Sodium-dependent serotonin transporter (P31645 whole entry): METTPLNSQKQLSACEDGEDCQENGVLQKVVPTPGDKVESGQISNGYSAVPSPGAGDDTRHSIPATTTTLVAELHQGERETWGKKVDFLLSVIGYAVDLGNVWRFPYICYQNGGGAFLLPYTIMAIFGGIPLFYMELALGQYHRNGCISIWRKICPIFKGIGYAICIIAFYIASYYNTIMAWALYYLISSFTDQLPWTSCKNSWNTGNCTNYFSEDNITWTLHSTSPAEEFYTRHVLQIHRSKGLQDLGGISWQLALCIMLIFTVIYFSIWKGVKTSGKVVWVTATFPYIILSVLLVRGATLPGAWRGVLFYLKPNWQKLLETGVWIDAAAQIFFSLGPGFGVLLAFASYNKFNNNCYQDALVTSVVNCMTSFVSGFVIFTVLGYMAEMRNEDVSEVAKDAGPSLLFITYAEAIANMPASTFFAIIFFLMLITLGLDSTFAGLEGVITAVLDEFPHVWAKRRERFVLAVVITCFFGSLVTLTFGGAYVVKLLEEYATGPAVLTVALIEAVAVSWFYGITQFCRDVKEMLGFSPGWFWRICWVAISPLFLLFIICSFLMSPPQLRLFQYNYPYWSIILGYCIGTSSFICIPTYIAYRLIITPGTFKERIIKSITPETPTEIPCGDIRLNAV

D(2) dopamine receptor [8] = target: T6, D(2) dopamine receptor; test: Displacement of [3H]-N-methylspiperone from human dopamine D2 receptor at 10 uM by liquid scintillation counting
[9] = target: T8, 5-hydroxytryptamine receptor 2C (Homo sapiens) (UniProt P28335); test: Displacement of [3H]-mesulergine from human 5HT2C receptor at 10 uM by liquid scintillation counting
T8 sequence (whole entry): T7 sequence (P28335 whole entry)

D(3) dopamine receptor [10] = target: T4, D(3) dopamine receptor; test: Displacement of [3H]-N-methylspiperone from human dopamine D3 receptor at 10 uM by liquid scintillation counting
[11] = target: T3, 5-hydroxytryptamine receptor 2A; test: Displacement of [3H]-mesulergine from human 5HT2A receptor at 10 uM by liquid scintillation counting
[12] = target: T2, 5-hydroxytryptamine receptor 7; test: Displacement of [3H]-LSD from human 5HT7 receptor at 10 uM by liquid scintillation counting
[13] = target: T9, 5-hydroxytryptamine receptor 1A (Homo sapiens) (UniProt P08908); test: Displacement of [3H]-8-OH-DPAT from human 5HT1A receptor at 10 uM by liquid scintillation counting
T9 sequence (whole entry): T5 sequence (P08908 whole entry)

inhibition (D(3) dopamine receptor [10]) [%]	inhibition [11] [%]	inhibition [12] [%]	inhibition [13] [%]	Structure (SMILES)	Ki (D(4) dopamine receptor) [nM]	Ki [1]	Ki [2] [nM]	Ki (D(3) dopamine receptor [3]) [nM]	Ki [4]	Ki (D(2) dopamine receptor [5]) [nM]	Ki [6] [nM]	Ki [7]	inhibition (D(2) dopamine receptor [8]) [%]	inhibition [9] [%]
				O=C(CCCN1CCCN(c2ccccn2)CC1)c1ccc(F)cc1	257	569 nM and 1550 nM	1.2	3450	1960 nM and 1910 nM	181	337			
				Cc1ccc(N2CCN(CCCCc3ccc(F)cc3)CC2)nc1		60 nM			92 nM		1610	2990 nM		
				Fc1ccc(CCCCN2CCN(c3cccnc3)CC2)cc1	16	267 nM	338		18 nM				50	50
				Fc1ccc(CCCCN2CCN(c3ccc(-c4ccccc4)cn3)CC2)cc1	2260	> 10000 nM	147	2090	1460 nM	> 10000	> 10000	2670 nM		
				Fc1ccc2c(c1)CC(CCN1CCCN(c3ccccn3)CC1)C2 (stereo not drawn)	104	267 nM	43	774	615 nM and 589 nM	599	963	64 nM		
				O=C(CCCN1C2CCC1CN(c1ccc(Cl)cn1)C2)c1ccc(F)cc1	119	335 nM	51	1010	78 nM	1250	1360	241 nM		
				O=C(CCCN1CCN(c2cccnc2)CC1)c1ccc(F)cc1	30	147 nM and 135 nM	305	140	97 nM	1170				50
				Fc1ccc(CCCCN2C3CCC2CN(c2ccc(Cl)cn2)C3)cc1	44	339 nM	94	840	94.2 nM			158 nM	50	50
				O=C(CCCN1CCCN(c2ccc(Cl)cn2)CC1)c1ccc(F)cc1	37	214 nM	8.9	26	259 nM	41	392	37 nM		
				O=C1c2ccc(F)cc2CC1CCN1CCCN(c2ccc(Cl)cc2)CC1 (stereo not drawn)		72 nM						24 nM		
				Fc1ccc(CCCCN2CCN(c3cccc(-c4ccccc4)n3)CC2)cc1	84	160 nM	261	58	155 nM	641	2960	> 10000 nM		
				Fc1ccc(CCCCN2CCN(c3ccccn3)CC2)cc1										50
				O=C1c2ccc(F)cc2CC1CCN1CCCN(c2ccc(Cl)cn2)CC1 (stereo not drawn)	36	58 nM	13	125	209 nM	364	355	24 nM		
				O=C1c2ccc(F)cc2CC1CCN1CCCN(c2ccccn2)CC1 (stereo not drawn)	191	58 nM	59	2290	886 nM	649		949 nM and 933 nM		50
50	50	50	50	Fc1ccc(CCCCN2CCN(c3ccncc3)CC2)cc1	2050								50	50
